From patent US20260035382A1, “COMPOUNDS AS SUMO ACTIVATING ENZYME INHIBITORS” (WIGEN BIOMEDICINE TECHNOLOGY (SHANGHAI) CO., LTD., priority 2022, published 2026)

These compounds were tested against SAE (Homo sapiens (Human), UniProt Q9UBT2) (assay: In vitro inhibitory activity assay against SAE (SUMO-2/3 immunofluorescence in HCT116 cells)). Conditions: 6 h incubation, class symbols, read-out: SUMO IF IC50.
SAE, sequence (Q9UBT2 whole entry): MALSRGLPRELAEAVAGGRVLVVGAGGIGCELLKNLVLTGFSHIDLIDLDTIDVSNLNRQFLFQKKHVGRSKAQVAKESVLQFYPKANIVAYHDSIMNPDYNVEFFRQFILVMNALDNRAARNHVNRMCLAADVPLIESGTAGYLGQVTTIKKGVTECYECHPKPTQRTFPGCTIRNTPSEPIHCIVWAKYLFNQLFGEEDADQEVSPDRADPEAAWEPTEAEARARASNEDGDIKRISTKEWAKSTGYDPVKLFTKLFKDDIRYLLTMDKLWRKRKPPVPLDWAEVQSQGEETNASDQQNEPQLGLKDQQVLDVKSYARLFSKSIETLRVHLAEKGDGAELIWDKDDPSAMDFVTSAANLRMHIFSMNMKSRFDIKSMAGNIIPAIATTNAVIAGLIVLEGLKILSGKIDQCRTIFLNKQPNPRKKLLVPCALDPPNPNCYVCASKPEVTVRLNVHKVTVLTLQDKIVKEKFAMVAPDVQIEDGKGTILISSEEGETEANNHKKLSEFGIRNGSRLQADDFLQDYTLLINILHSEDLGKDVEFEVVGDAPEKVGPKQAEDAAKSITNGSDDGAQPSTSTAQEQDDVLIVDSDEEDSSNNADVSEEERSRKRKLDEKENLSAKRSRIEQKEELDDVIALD
SAE, sequence (Q9UBE0 whole entry partner): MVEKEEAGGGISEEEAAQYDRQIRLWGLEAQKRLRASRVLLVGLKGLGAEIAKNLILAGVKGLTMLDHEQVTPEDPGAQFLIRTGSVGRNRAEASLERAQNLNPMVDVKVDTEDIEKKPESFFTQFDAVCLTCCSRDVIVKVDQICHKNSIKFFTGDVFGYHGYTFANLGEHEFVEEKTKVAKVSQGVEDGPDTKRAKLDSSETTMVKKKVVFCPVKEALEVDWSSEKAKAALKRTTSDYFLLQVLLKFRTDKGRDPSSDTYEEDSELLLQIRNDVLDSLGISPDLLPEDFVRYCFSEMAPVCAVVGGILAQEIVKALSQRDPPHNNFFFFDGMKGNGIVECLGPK
Assay type: cell-based
Description: HCT116 cells were seeded into a 96-well black transparent bottom plate at about 20000/well with 90 μL per well. The cells were incubated at 37° C. overnight for 24 h. The test compounds were 10-fold diluted to give a final concentration, and 10 μL of the diluted compounds was added to each well of the cell culture plate. The mixture was incubated at 37° C. for 6 h. The cells were then washed gently, the culture medium was discarded, and the cells were washed once with 200 μL of 0.1% o PBST. 50 μL of 4% PFA was added to each well, and the cells were immobilized at room temperature for 20 min, and then washed with PBS 2-3 times. 50 μL of 0.2% o Triton X-100 was added to each well, and the cells were left to stand at room temperature for 15 min and washed with 0.1% PBST 3 times. 100 uL of 3% BSA (0.6 g BSA+20 mL PBS) was added to each well, and the mixture was blocked at 37° C. for 30 min. After the blocking was completed, the liquid was removed and a primary antibody (SUMO-2/3 (181H8) Rabbit mAb, 1:400 dilution) was prepared with […]. 30 μL of the diluted primary antibody was added to each well, and the mixture was incubated at 4° C. overnight. The cells were washed 3 times with 200 μL of 0.1% o PBST. A FITC secondary antibody (Fluorescein (FITC)-conjugated Affinipure Goat Anti-Rabbit IgG (H+L), 1:300 dilution) was further prepared with 1% o BSA, and 40 μL of the diluted secondary antibody was added to each well. The mixture was incubated at room temperature in the dark for 2 h, and then the cells were washed 4 times with 0.1% PBST. The fluorescence signal of the sample was detected and compared to the DMSO group, and the inhibition rate and IC50 were calculated.
`NS(=O)(=O)OC[C@H]1C[C@@H](Nc2ncncc2C(=O)c2cc3c(s2)OC[C@]32NCCc3ccccc32)C[C@@H]1O` [Compound 57] was tested, and the IC50 was 50 to 200 nM.
In the case of `NS(=O)(=O)OC[C@H]1C[C@@H](Nc2ncncc2C(=O)c2cc3c(s2)OCC32NCCc3ccc(F)cc32)C[C@@H]1O` (stereo partly shown) [Compound 58], the IC50 is reported as over 200 nM.
`NS(=O)(=O)OC[C@H]1C[C@@H](Nc2ncncc2C(=O)c2cc3c(s2)OC[C@@]32NCCc3ccc(F)cc32)C[C@@H]1O` [Compound 59] showed an IC50 of over 200 nM.
`NS(=O)(=O)OC[C@H]1C[C@@H](Nc2ncncc2C(=O)c2cc3c(s2)OC[C@]32NCCc3ccc(F)cc32)C[C@@H]1O` [Compound 60] was tested, and the IC50 was 50 to 200 nM.
`NS(=O)(=O)OC[C@H]1C[C@@H](Nc2ncncc2C(=O)c2cc3c(s2)OCC32NCCc3ccc(Cl)cc32)C[C@@H]1O` (stereo partly shown) [Compound 61] gave an IC50 of 50 to 200 nM.
Compound `NS(=O)(=O)OC[C@H]1C[C@@H](Nc2ncncc2C(=O)c2cc3c(s2)OC[C@@]32NCCc3ccc(Cl)cc32)C[C@@H]1O` [Compound 62] has an IC50 of over 200 nM.
`NS(=O)(=O)OC[C@H]1C[C@@H](Nc2ncncc2C(=O)c2cc3c(s2)OC[C@]32NCCc3ccc(Cl)cc32)C[C@@H]1O` [Compound 63] showed an IC50 of 50 to 200 nM.
`Cc1ccc2c(c1)C1(CCc3sc(C(=O)c4cncnc4N[C@@H]4C[C@H](COS(N)(=O)=O)[C@@H](O)C4)cc31)NCC2` (stereo partly shown) [Compound 64] gave an IC50 of 50 to 200 nM.
`NS(=O)(=O)OC[C@H]1C[C@@H](Nc2ncncc2C(=O)c2cc3c(s2)CCC32NCCc3ccc(C4CC4)cc32)C[C@@H]1O` (stereo partly shown) [Compound 65] gave an IC50 of 50 to 200 nM.
`COc1ccc2c(c1)C1(CCc3sc(C(=O)c4cncnc4N[C@@H]4C[C@H](COS(N)(=O)=O)[C@@H](O)C4)cc31)NCC2` (stereo partly shown) [Compound 66] showed an IC50 of over 200 nM.
Work on `NS(=O)(=O)OC[C@H]1C[C@@H](Nc2ncncc2C(=O)c2cc3c(s2)CCC32NCCc3ccc(C(F)(F)F)cc32)C[C@@H]1O` (stereo partly shown) [Compound 67] yielded an IC50 of 50 to 200 nM.
With `NS(=O)(=O)OC[C@H]1C[C@@H](Nc2ncncc2C(=O)c2cc3c(s2)CCC32NCCc3cc(F)c(F)cc32)C[C@@H]1O` (stereo partly shown) [Compound 68] the IC50 was 50 to 200 nM.
For `NS(=O)(=O)OC[C@H]1C[C@@H](Nc2ncncc2C(=O)c2cc3c(s2)CCC32NCCc3cc(F)c(Cl)cc32)C[C@@H]1O` (stereo partly shown) [Compound 69], the IC50 was at most 50 nM.
Compound `NS(=O)(=O)OC[C@H]1C[C@@H](Nc2ncncc2C(=O)c2cc3c(s2)CCC32NCCc3cc(Cl)c(Cl)cc32)C[C@@H]1O` (stereo partly shown) [Compound 70] has an IC50 of 50 to 200 nM.
`Cc1cc2c(cc1Cl)C1(CCc3sc(C(=O)c4cncnc4N[C@@H]4C[C@H](COS(N)(=O)=O)[C@@H](O)C4)cc31)NCC2` (stereo partly shown) [Compound 71] gave an IC50 of 50 to 200 nM.
Work on `N#Cc1cc2c(cc1Cl)C1(CCc3sc(C(=O)c4cncnc4N[C@@H]4C[C@H](COS(N)(=O)=O)[C@@H](O)C4)cc31)NCC2` (stereo partly shown) [Compound 72] yielded an IC50 of 50 to 200 nM.
For `COc1cc2c(cc1Cl)C1(CCc3sc(C(=O)c4cncnc4N[C@@H]4C[C@H](COS(N)(=O)=O)[C@@H](O)C4)cc31)NCC2` (stereo partly shown) [Compound 73], the IC50 was 50 to 200 nM.
Compound `NS(=O)(=O)OC[C@H]1C[C@@H](Nc2ncncc2C(=O)c2cc3c(s2)CCC32NCCc3cc(F)c(Cl)c(F)c32)C[C@@H]1O` (stereo partly shown) [Compound 74] has an IC50 of 50 to 200 nM.
`NS(=O)(=O)OC[C@H]1C[C@@H](Nc2ncncc2C(=O)c2cc3c(s2)CCC32NCCc3cc(Cl)c(F)cc32)C[C@@H]1O` (stereo partly shown) [Compound 75] gave an IC50 of 50 to 200 nM.
For `NS(=O)(=O)OC[C@H]1C[C@@H](Nc2ncncc2C(=O)c2cc3c(s2)CCC32NCCc3ccncc32)C[C@@H]1O` (stereo partly shown) [Compound 76], the IC50 was 50 to 200 nM.
For `NS(=O)(=O)OC[C@H]1C[C@@H](Nc2ncncc2C(=O)c2cc3c(s2)CCC32NCCc3cc(Cl)ncc32)C[C@@H]1O` (stereo partly shown) [Compound 77], the IC50 was 50 to 200 nM.
Work on `NS(=O)(=O)OC[C@H]1C[C@@H](Nc2ncncc2C(=O)c2cc3c(s2)C=CC32NCCc3ccc(Cl)cc32)C[C@@H]1O` (stereo partly shown) [Compound 78] yielded an IC50 of at most 50 nM.
`NS(=O)(=O)OC[C@H]1C[C@@H](Nc2ncncc2C(=O)c2cc3c(s2)C=CC32NCCc3ccc(F)cc32)C[C@@H]1O` (stereo partly shown) [Compound 79] showed an IC50 of 50 to 200 nM.
`NS(=O)(=O)OC[C@H]1C[C@@H](Nc2ncncc2C(=O)c2cc3c(s2)COC32NCCc3ccc(Cl)cc32)C[C@@H]1O` (stereo partly shown) [Compound 80] was tested, and the IC50 was 50 to 200 nM.
With `NS(=O)(=O)OC[C@H]1C[C@@H](Nc2ncncc2C(=O)c2cc3c(s2)CCC32NCC3(CC3)c3ccc(Cl)cc32)C[C@@H]1O` (stereo partly shown) [Compound 81] the IC50 was 50 to 200 nM.
`NS(=O)(=O)OC[C@H]1C[C@@H](Nc2ncncc2C(=O)c2cc3c(s2)CCC32NC3(CC3)Cc3ccc(Cl)cc32)C[C@@H]1O` (stereo partly shown) [Compound 82] was tested, and the IC50 was 50 to 200 nM.
Work on `NS(=O)(=O)OC[C@H]1C[C@@H](Nc2ncncc2C(=O)c2cc3c(s2)CCC32NCC(=O)c3ccc(Cl)cc32)C[C@@H]1O` (stereo partly shown) [Compound 83] yielded an IC50 of 50 to 200 nM.
`NS(=O)(=O)OC[C@H]1C[C@@H](Nc2ncncc2C(=O)c2cc3c(s2)CCC32OCCc3ccc(Cl)cc32)C[C@@H]1O` (stereo partly shown) [Compound 84] gave an IC50 of at most 50 nM.
In the case of `NS(=O)(=O)OC[C@H]1C[C@@H](Nc2ncncc2C(=O)c2cc3c(s2)CSCC32NCCc3ccccc32)C[C@@H]1O` (stereo partly shown) [Compound 85], the IC50 is reported as over 200 nM.
Work on `NS(=O)(=O)OC[C@H]1C[C@@H](Nc2ncncc2C(=O)c2cc3c(s2)CSC[C@@]32NCCc3ccccc32)C[C@@H]1O` [Compound 86] yielded an IC50 of over 200 nM.
`NS(=O)(=O)OC[C@H]1C[C@@H](Nc2ncncc2C(=O)c2cc3c(s2)CSC[C@]32NCCc3ccccc32)C[C@@H]1O` [Compound 87] was tested, and the IC50 was 50 to 200 nM.
With `NS(=O)(=O)OC[C@H]1C[C@@H](Nc2ncncc2C(=O)c2cc3c(s2)CSCC32NCCc3ccc(F)cc32)C[C@@H]1O` (stereo partly shown) [Compound 88] the IC50 was at most 50 nM.
Compound `NS(=O)(=O)OC[C@H]1C[C@@H](Nc2ncncc2C(=O)c2cc3c(s2)CSC[C@@]32NCCc3ccc(F)cc32)C[C@@H]1O` [Compound 89] has an IC50 of over 200 nM.
Compound `NS(=O)(=O)OC[C@H]1C[C@@H](Nc2ncncc2C(=O)c2cc3c(s2)CSC[C@]32NCCc3ccc(F)cc32)C[C@@H]1O` [Compound 90] has an IC50 of at most 50 nM.
For `NS(=O)(=O)OC[C@H]1C[C@@H](Nc2ncncc2C(=O)c2cc3c(s2)CSCC32NCCc3ccc(Cl)cc32)C[C@@H]1O` (stereo partly shown) [Compound 91], the IC50 was at most 50 nM.
With `NS(=O)(=O)OC[C@H]1C[C@@H](Nc2ncncc2C(=O)c2cc3c(s2)COCC32NCCc3ccc(Cl)c(Cl)c32)C[C@@H]1O` (stereo partly shown) [Compound 94] the IC50 was 50 to 200 nM.
Compound `NS(=O)(=O)OC[C@H]1C[C@@H](Nc2ncncc2C(=O)c2cc3c(s2)COC[C@@]32NCCc3ccc(Cl)c(Cl)c32)C[C@@H]1O` [Compound 95] has an IC50 of over 200 nM.
With `NS(=O)(=O)OC[C@H]1C[C@@H](Nc2ncncc2C(=O)c2cc3c(s2)COC[C@]32NCCc3ccc(Cl)c(Cl)c32)C[C@@H]1O` [Compound 96] the IC50 was 50 to 200 nM.
Work on `NS(=O)(=O)OC[C@H]1C[C@@H](Nc2ncncc2C(=O)c2cc3c(s2)COCC32NCCc3cc(Cl)c(Cl)cc32)C[C@@H]1O` (stereo partly shown) [Compound 97] yielded an IC50 of 50 to 200 nM.
`NS(=O)(=O)OC[C@H]1C[C@@H](Nc2ncncc2C(=O)c2cc3c(s2)COC[C@@]32NCCc3cc(Cl)c(Cl)cc32)C[C@@H]1O` [Compound 98] showed an IC50 of over 200 nM.
In the case of `NS(=O)(=O)OC[C@H]1C[C@@H](Nc2ncncc2C(=O)c2cc3c(s2)COC[C@]32NCCc3cc(Cl)c(Cl)cc32)C[C@@H]1O` [Compound 99], the IC50 is reported as 50 to 200 nM.
`NS(=O)(=O)OC[C@H]1C[C@@H](Nc2ncncc2C(=O)c2cc3c(s2)COCC32NCCc3c(Cl)cc(Cl)cc32)C[C@@H]1O` (stereo partly shown) [Compound 100] gave an IC50 of 50 to 200 nM.
`NS(=O)(=O)OC[C@H]1C[C@@H](Nc2ncncc2C(=O)c2cc3c(s2)COC[C@@]32NCCc3c(Cl)cc(Cl)cc32)C[C@@H]1O` [Compound 101] was tested, and the IC50 was over 200 nM.
With `NS(=O)(=O)OC[C@H]1C[C@@H](Nc2ncncc2C(=O)c2cc3c(s2)COC[C@]32NCCc3c(Cl)cc(Cl)cc32)C[C@@H]1O` [Compound 102] the IC50 was 50 to 200 nM.
In the case of `NS(=O)(=O)OC[C@H]1C[C@@H](Nc2ncncc2C(=O)c2cc3c(s2)COCC32NCCc3ccc(Cl)c(F)c32)C[C@@H]1O` (stereo partly shown) [Compound 103], the IC50 is reported as 50 to 200 nM.
In the case of `NS(=O)(=O)OC[C@H]1C[C@@H](Nc2ncncc2C(=O)c2cc3c(s2)COC[C@@]32NCCc3ccc(Cl)c(F)c32)C[C@@H]1O` [Compound 104], the IC50 is reported as over 200 nM.
In the case of `NS(=O)(=O)OC[C@H]1C[C@@H](Nc2ncncc2C(=O)c2cc3c(s2)COC[C@]32NCCc3ccc(Cl)c(F)c32)C[C@@H]1O` [Compound 105], the IC50 is reported as 50 to 200 nM.
Work on `NS(=O)(=O)OC[C@H]1C[C@@H](Nc2ncncc2C(=O)c2cc3c(s2)COCC32NCCc3cc(F)c(Cl)cc32)C[C@@H]1O` (stereo partly shown) [Compound 106] yielded an IC50 of 50 to 200 nM.
Work on `NS(=O)(=O)OC[C@H]1C[C@@H](Nc2ncncc2C(=O)c2cc3c(s2)COC[C@@]32NCCc3cc(F)c(Cl)cc32)C[C@@H]1O` [Compound 107] yielded an IC50 of over 200 nM.
`NS(=O)(=O)OC[C@H]1C[C@@H](Nc2ncncc2C(=O)c2cc3c(s2)COC[C@]32NCCc3cc(F)c(Cl)cc32)C[C@@H]1O` [Compound 108] showed an IC50 of 50 to 200 nM.

Same assay, conditions: 6 h incubation, numeric values, read-out: SUMO IF IC50
With `NS(=O)(=O)OC[C@H]1C[C@@H](Nc2ncncc2C(=O)c2cc3c(s2)CSC[C@@]32NCCc3ccc(Cl)cc32)C[C@@H]1O` [Compound 92] the IC50 was over 1000 nM.
For `NS(=O)(=O)OC[C@H]1C[C@@H](Nc2ncncc2C(=O)c2cc3c(s2)CSC[C@]32NCCc3ccc(Cl)cc32)C[C@@H]1O` [Compound 93], the IC50 was 28.9 nM.
